Data published in ChEMBL document CHEMBL1131167, “Structure-activity relationships of a series of analogues of the octadecaneuropeptide ODN on calcium mobilization in rat astrocytes” (1998).
Peptide text beside a SMILES is read from it.

Assays:
Type in all cases: functional
Rattus norvegicus [1] = species on record: Rattus norvegicus; test: Effect of compound on basal [Ca2+] and ODN induced [Ca2+] increase in cultured rat astrocytes measured at 10*e-6 conc (M)
Rattus norvegicus [2] = species on record: Rattus norvegicus; test: Effect of compound on basal [Ca2+] and ODN induced [Ca2+] increase in cultured rat astrocytes measured at 10*e-8+10e-6 conc (M) in the presence of [D-Thr9]-ODN
Rattus norvegicus [3] = species on record: Rattus norvegicus; test: Effect of compound on basal [Ca2+] and ODN induced [Ca2+] increase in cultured rat astrocytes measured at 10*e-8+10e-6 conc (M) in the presence of [D-Leu5-]OP
Rattus norvegicus [4] = species on record: Rattus norvegicus; test: Effect of compound on basal [Ca2+] and ODN induced [Ca2+] increase in cultured rat astrocytes measured at 10*e-8+10e-6 conc (M) in the presence of [Ala15]ODN. p<0.001
Rattus norvegicus [5] = species on record: Rattus norvegicus; test: Effect of compound on basal [Ca2+] and ODN induced [Ca2+] increase in cultured rat astrocytes measured at 10*e-8 conc (M).
Rattus norvegicus [6] = species on record: Rattus norvegicus; test: Effect of compound on basal [Ca2+] and ODN induced [Ca2+] increase in cultured rat astrocytes measured at 10*e-8+10e-6 conc (M) in the presence of [D-Leu15]-ODN
Rattus norvegicus [7] = species on record: Rattus norvegicus; test: Effect of compound on basal [Ca2+] and ODN induced [Ca2+] increase in cultured rat astrocytes measured at 10*e-8+10e-6 conc (M) in the presence of [Ala9]ODN. p<0.001

| Structure (SMILES) | [Ca2+] variation (Rattus norvegicus [1]) | [Ca2+] variation (Rattus norvegicus [2]) | [Ca2+] variation (Rattus norvegicus [3]) | [Ca2+] variation (Rattus norvegicus [4]) | [Ca2+] variation (Rattus norvegicus [5]) | [Ca2+] variation (Rattus norvegicus [6]) | [Ca2+] variation (Rattus norvegicus [7]) |
| --- | --- | --- | --- | --- | --- | --- | --- |
| CC(C)C[C@H](NC(=O)CNC(=O)[C@@H]1CCCN1C(=O)[C@@H](N)CCCNC(=N)N)C(=O)N[C@@H](C)C(=O)N[C@@H](CC(=O)O)C(=O)N[C@@H](CC(C)C)C(=O)N[C@@H](CCCCN)C(=O)O (H-RPGLADLK-OH) | 37 nM |  |  |  |  |  |  |
| CC(C)C[C@H](NC(=O)CNC(=O)[C@@H]1CCCN1C(=O)[C@H](CCCN=C(N)N)NC(=O)[C@H](CC(=O)O)NC(=O)[C@@H](NC(=O)[C@H](CC(N)=O)NC(=O)[C@@H](NC(=O)[C@H](CC(=O)O)NC(=O)CNC(=O)[C@@H](NC(=O)[C@@H](NC(=O)[C@H](C)NC(=O)[C@@H](N)CCC(N)=O)[C@@H](C)O)C(C)C)C(C)C)[C@@H](C)O)C(=O)N[C@@H](CC(C)C)C(=O)N[C@@H](CC(=O)O)C(=O)N[C@@H](CC(C)C)C(=O)N[C@@H](CCCCN)C(=O)O [QATVGDVNTDRPGLLDLK] (H-QATVGDVNTDRPGLLDLK-OH) |  | 31 nM | 39 nM | 36 nM | 62 nM | 25 nM | 39 nM |
